# Experimental data published in PubChem BioAssay AID179 (DTP/NCI, 2004).
# Active and inactive are the calls of the source.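 Rule for the calls: active = compounds giving half or more protection of infected cells from virus-caused growth loss, again on retest; inactive = the rest.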
# System: CEM cells HIV-1 protection, formazan growth assay
# Assay: NCI AIDS Antiviral Assay
# Details: for IC50: measured here: growth of uninfected CEM cells
# In short: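 CEM (human) cells, HIV-1 infected vs uninfected, 5-point dosing, formazan growth read-out. Retest threshold 50% protection.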
SMILES,EC50,IC50,outcome
CC(C)(Cc1ccccc1)C(=C=C=C=C(c1ccccc1)C(C)(C)Cc1ccccc1)c1ccccc1,> 46.8 µM,> 46.8 µM,
COc1ccc(-c2nc(-c3cnccn3)n(C3OC(CO)C(O)C3O)n2)cc1 (stereo not drawn),> 200 µM,> 200 µM,
CCOC(=O)CCC(NC(=O)c1ccc(Oc2nc3c(N)cc(C(F)(F)F)cc3nc2-c2ccccc2)cc1)C(=O)OCC (stereo not drawn),> 200 µM,112 µM,
N#CC1C(=O)Nc2cccnc21 (stereo not drawn),> 1580 µM,832 µM,
O=C(c1ccccc1)C1C(c2ccccc2)N1S(=O)(=O)c1ccccc1 (stereo not drawn),> 20 µM,3.02 µM,
NC(=O)CCC(Nc1c2ccccc2nc2ccccc12)C(=O)O (stereo not drawn),,,inactive
COC(=O)C1C(=O)NC2(C)CC1c1ccccc1O2 (stereo not drawn),,,inactive
Cn1c(N2CCCC2)c(C=O)c(=O)n(C)c1=O,,,inactive
COc1ccc2[nH]c(S(=O)(=O)N3CC(CCl)c4ccc(N)cc43)cc2c1 (stereo not drawn),> 0.2 µM,0.102 µM,
NCCCC(N)(C(=O)O)C(F)F (stereo not drawn),> 200 µM,129 µM,
[Ni].c1c[nH]cn1.c1c[nH]cn1.c1c[nH]cn1.c1c[nH]cn1.c1c[nH]cn1.c1c[nH]cn1,> 66.1 µM,> 66.1 µM,
CNc1ccc(C)cc1S(=O)(=O)c1ccc(OC)cc1,> 200 µM,95.5 µM,
CC(=O)OCC(OC(C)=O)C(OC(C)=O)C(OC(C)=O)C(=O)CNn1c(-c2ccccc2)nc2ccc(Br)cc2c1=O (stereo not drawn),,,inactive
COc1ccc2nc(CC(=N)c3ccc(N(C)C)cc3)ccc2c1,> 200 µM,23.4 µM,
Cn1nc(-c2ccccc2)c(N=[N+]=[N-])cc1=O,> 200 µM,> 200 µM,
CCCCC1Sc2cc(OC)cc3nnn(c23)C1=O (stereo not drawn),> 200 µM,> 200 µM,
CC1(C)CCc2cc3c(cc2O1)OC(C)(C)C1c2c(ccc4c2CCC(C)(C)O4)OC31 (stereo not drawn),,,inactive
O=C1c2cccc3cccc(c23)C(=O)N1CCCN(CCO)CCO,> 200 µM,12.3 µM,
COc1cccc2c1cc([N+](=O)[O-])c1c(C(=O)O)cc3c(c12)OCO3,> 200 µM,19.1 µM,
CO[C@@H]1C[C@H]2[C@@H]3CC[C@H]([C@H](C)COC(C)=O)[C@@]3(C)CC[C@@H]2[C@@]2(C)CC[C@H]3C[C@]312,> 100 µM,> 100 µM,
COc1ccc2c3c1C(=O)CCCC3CO2 (stereo not drawn),,,inactive
COc1ccccc1NC(=O)CC(=O)N1N=C(C)C(N=Nc2ccc(C(=O)O)cc2)C1=O (stereo not drawn),> 200 µM,> 200 µM,
CC(C(=O)c1cc(O)c(O)cc1C(O)(C(F)(F)F)C(F)(F)F)C(O)(C(F)(F)F)C(F)(F)F (stereo not drawn),70.8 µM,> 100 µM,

SMILES,EC50,IC50,outcome
O=[N+]([O-])c1ccc2nc3ccc([N+](=O)[O-])cn3c2c1,> 200 µM,> 200 µM,
CCCCC(/C=C\COC1CCCCO1)=C/C(=O)OCC (stereo not drawn),> 126 µM,77.6 µM,
CCCCCC(=O)Cc1cc(O)cc2c1C(=O)Oc1cc(O)c(C(=O)O)c(CCCCC)c1O2,> 200 µM,33.9 µM,
Nc1ncc2c(ncn2CC(O)CO)n1 (stereo not drawn),> 1200 µM,> 1200 µM,
Cc1cc(C)c(C(=O)OC(c2ccccc2)C(c2ccccc2)N2CCOCC2)c(C)c1 (stereo not drawn),,,inactive
COc1ccc(N=CN(C)C)c(C)c1,> 200 µM,3.98 µM,
Cc1ccc(N/N=c2/ccc(=O)/c(=N\Nc3ccc(S(=O)(=O)O)cc3)c2=O)c(C)c1,> 200 µM,> 200 µM,
CCC1OC2C(CC=C(C)C)=C3OC(C)(O)C(C)(CC)C(OC(=O)c4ccccc4)C3=C3OC(=O)C=C1C32 (stereo not drawn),> 200 µM,18.6 µM,
CSC(SC)=C(C#N)C(=O)Nc1ccc(Cl)cc1,> 14.8 µM,5.37 µM,
CN(C)c1ccc2c(c1)-c1cc(N(C)C)ccc1C2=CC=C1C(=O)c2ccccc2C1=O,> 17 µM,> 17 µM,
FC(F)(F)c1nc(-c2ccccc2)oc1Sc1oc(-c2ccccc2)nc1C(F)(F)F,,,inactive
O=C(CCc1cccc(O)c1)NCCCNC(=O)CCc1cccc(O)c1,> 200 µM,> 200 µM,
CCN(C(=O)c1ccc([N+](=O)[O-])cc1)C(c1ccccc1)P(=O)(c1ccccc1)c1ccccc1 (stereo not drawn),,,inactive
c1ccc2c(c1)N[C@@H]1c3[nH]c4ccccc4c3CC[C@H]21,> 200 µM,24.5 µM,
CC(=O)NC(C(=O)O)C(C)(C)SN=O (stereo not drawn),> 1120 µM,240 µM,
COc1ccccc1NC(=O)CC(=O)NN,> 200 µM,> 200 µM,
Cc1nc2ccccc2n(CC2CCCN3CCCC[C@H]23)c1=O (stereo partly drawn),> 200 µM,> 200 µM,
Cc1cc(-c2[nH]c(C(=O)O)cc2I)on1,> 200 µM,> 200 µM,
CC1=NN(c2ccccc2)C(=O)C1=Nc1c(C)[nH]n(-c2ccccc2)c1=O,> 200 µM,> 200 µM,
CCOC(=O)c1sc2nc(SC)nc3c2c1N=CN3c1ccc(Br)cc1,,,inactive
O=C1NC(=S)S/C1=C\c1cccs1,> 60.3 µM,> 60.3 µM,
O=C(OCc1ccccc1)N(Cc1ccccc1)S(=O)(=O)c1ccccc1,> 200 µM,> 200 µM,
CCNc1cc2oc(=O)cc(C(F)(F)F)c2cc1C,> 13.8 µM,> 13.8 µM,

SMILES,EC50,IC50,outcome
CCOC(=O)C1C(=O)CN2CCc3c([nH]c4ccccc34)C12C(=O)OCC (stereo not drawn),> 257 µM,162 µM,
COc1cc(/C=C2/C(=O)N=C(NC(C)=O)N2C)ccc1OC(C)=O,> 200 µM,> 200 µM,
CSc1cc(SC)ncn1,> 1450 µM,1020 µM,
COc1ccc(-c2c(-c3ccc(OC)cc3)n3c(=O)n(C)c(=O)n23)cc1,> 200 µM,79.4 µM,
CN(C)C1=Nc2ccccc2C(=S)N2CSCC12 (stereo not drawn),> 200 µM,29.5 µM,
CC(=O)OCc1cncn1S(=O)(=O)c1ccc(C)cc1,> 200 µM,22.9 µM,
COC(=O)c1cccc(C)c1C1CN=NC12Cc1cc(C)cc(C)c1C2=O (stereo not drawn),> 200 µM,12.3 µM,
Nc1ccc2c(c1)[O][Sn]([c]1ccccc1)([c]1ccccc1)[O]C2=O,,,inactive
CSc1c(C#N)c(O)n(-c2ccc(C)cc2)c(=O)c1C#N,> 115 µM,102 µM,
Cc1ccc(-n2[nH]nc(C(N)=O)c2=O)cc1,> 200 µM,> 200 µM,
O=C(N/N=C1/C(=O)N(c2ccc(Cl)cc2Cl)C(=O)C(=O)C1c1nc2ccccc2o1)c1ccccc1O (stereo not drawn),,,inactive
Cn1nc2ccc3nccc(NCCNCCO)c3c2n1,> 871 µM,3.89 µM,
COc1ccc2c(=O)c(-c3ccc(OC)c(OC)c3)c(C)oc2c1,> 200 µM,> 200 µM,
CN1N=C(c2ccncc2)OC1c1ccc(Cl)c(Cl)c1 (stereo not drawn),> 200 µM,85.1 µM,
O=C(c1ccccc1)c1ccc2cccc(OC3OC(CO)C(O)C(O)C3O)c2n1 (stereo not drawn),> 603 µM,316 µM,
O=C(Nc1cc(Cl)c(Cl)cc1Cl)C(=O)C(C(=O)c1ccccc1)C1OC(=O)c2ccccc21 (stereo not drawn),,,inactive
Cc1cc(O)c(/C=N/C(=S)Nc2ccccc2)c(=O)o1,> 200 µM,> 200 µM,
Cc1cc(=O)[nH]c(NN2C(Cl)C(=O)C2c2ccccc2O)n1 (stereo not drawn),> 58.9 µM,3.63 µM,
O=c1c2cc(-c3ccccc3)cnc2sn1-c1ccc(Oc2ccccc2)cc1,69.2 µM,110 µM,
CC(=O)N1CC2Nc3ccccc3C2CC1CO (stereo not drawn),,,inactive
Cc1cc2c(-c3ccccc3)c3cc(C)c(N)cc3nc2cc1N,> 200 µM,2.75 µM,
N=C(N)c1csc([C@@H]2O[C@H](CO)[C@@H](O)[C@H]2O)n1,,,inactive
CSc1c(C(=O)Nc2ccccc2)c(N)n(N)c(=O)c1C#N,55 µM,> 200 µM,

SMILES,EC50,IC50,outcome
O=C1Nc2ccccc2C1S(=O)(=O)c1ccccc1 (stereo not drawn),> 138 µM,110 µM,
N#Cc1c2n(c(=S)n(-c3ccccc3)c1=O)CCCCCCC2,> 200 µM,162 µM,
COC(=O)C1=C(C(=O)OC)SC(=CC#CC=C2SC(C(=O)OC)=C(C(=O)OC)S2)S1,> 5.62 µM,> 5.62 µM,
COc1ccc(C(c2ccc(C(C)C)cc(=O)c2O)c2ccc3cccnc3c2O)cc1 (stereo not drawn),,,inactive
CC(C)(C)c1ccc(-c2nc3ccc([N+](=O)[O-])cc3c(=O)o2)cc1,> 200 µM,8.91 µM,
COc1cccc(C(=O)CC(c2ccccc2)C(C)(C)[N+](=O)[O-])c1 (stereo not drawn),> 200 µM,95.5 µM,
N/N=C1\C(=O)N(c2ccc(Cl)cc2Cl)C(=O)C(=O)C1c1nc2ccccc2o1 (stereo not drawn),,,inactive
CS(=O)(=O)c1ccc(-c2cc(-c3ccc(S(C)(=O)=O)cc3)[n+](-c3cc(-c4ccc(S(C)(=O)=O)cc4)c([O-])c(-c4ccc(S(C)(=O)=O)cc4)c3)c(-c3ccc(S(C)(=O)=O)cc3)c2)cc1,> 7.59 µM,> 7.59 µM,
COC1(OC)C2(Cl)C(Cl)=C(Cl)C1(Cl)C1COCC12 (stereo not drawn),,,inactive
Cc1cc2c(cc1C)[n+](=O)c(C(=O)C/C(=N/OCCCc1ccccc1)C(=O)Nc1cc(Cl)ccc1Cl)c(C)n2[O-],> 6.31 µM,> 6.31 µM,
CC1CCCCc2nc3c(c(=O)n21)CCCC3 (stereo not drawn),> 562 µM,347 µM,
COc1cc(N=Nc2ccccc2)cc(/C=N/NC(=O)c2cccnc2)c1O,> 661 µM,60.3 µM,
CCP(=O)(CC)C(Cl)(Cl)C(=O)NC,> 200 µM,> 200 µM,
O=c1[nH]c2cc(Cl)c(Br)cc2o1,112 µM,204 µM,
CC1(C)C2(C(N)=O)C(=O)NC(=O)C12C(=O)O (stereo not drawn),> 200 µM,> 200 µM,
CN(C)c1ccc2c(c1)-c1cc(N(C)C)ccc1C2=CC=C(C#N)C#N,> 4.27 µM,> 4.27 µM,
NC(=O)Nc1cc(O)ccc1N=Nc1ccc(S(=O)(=O)Nc2ccccn2)cc1,> 87.1 µM,> 87.1 µM,
CNC(=O)c1[nH]cnc1/N=N/N(C)N,> 200 µM,182 µM,
Fc1ccccc1C1SCc2nc3ccccc3n21 (stereo not drawn),11 µM,38.9 µM,
Clc1ccc2nc3occ(Br)c3cc2c1,> 13.2 µM,> 13.2 µM,
[N-]=[N+]=C1N=CN=C1c1ncn[nH]1,> 200 µM,4.07 µM,
C=C(C)C1=NC(C)(C)CC1=C(C)C,,,inactive
